Test results from ChEMBL document CHEMBL3045342, “Quantitative relationship between insecticidal activity and Ca2+ pump stimulation by flubendiamide and its related compounds” (J Pestic Sci, 2009).
Values after ≈ are worked out from the molar mass of the structure shown. Active and inactive are the calls of the source. The calls are words filed in the database; no cut-off is given here.

Tests used:
Spodoptera litura = test: Insecticidal activity against Spodoptera litura cabbage leaf disk after 4 to 7 days by leaf dipping method; format: functional; conditions: foliar
[1] = biological target: Ryanodien receptor (Spodoptera exigua) (UniProt H9CNL0); test: Activation of ryanodine receptor in sixth-instar larvae of Spodoptera litura muscle membrane assessed as induction of Ca2+ pump at 1 to 100 uM after 30 min
[2] = biological target: Ryanodien receptor (Spodoptera exigua) (UniProt H9CNL0); test: Activation of ryanodine receptor in sixth-instar larvae of Spodoptera litura muscle membrane assessed as induction of Ca2+ pump at 10 uM after 30 min relative to control
[3] = biological target: Ryanodien receptor (Spodoptera exigua) (UniProt H9CNL0); test: Activation of ryanodine receptor in sixth-instar larvae of Spodoptera litura muscle membrane assessed as induction of Ca2+ pump at 0.1 uM after 30 min relative to control
[4] = biological target: Ryanodien receptor (Spodoptera exigua) (UniProt H9CNL0); test: Activation of ryanodine receptor in sixth-instar larvae of Spodoptera litura muscle membrane assessed as induction of Ca2+ pump at 1 uM after 30 min relative to control
[5] = biological target: Ryanodien receptor (Spodoptera exigua) (UniProt H9CNL0); test: Activation of ryanodine receptor in sixth-instar larvae of Spodoptera litura muscle membrane assessed as induction of Ca2+ pump at 0.1 uM after 30 min in presence of ryanodine
[6] = biological target: Ryanodien receptor (Spodoptera exigua) (UniProt H9CNL0); test: Activation of ryanodine receptor in sixth-instar larvae of Spodoptera litura muscle membrane assessed as induction of Ca2+ pump at 0.4 uM after 30 min relative to control
[7] = biological target: Ryanodien receptor (Spodoptera exigua) (UniProt H9CNL0); test: Activation of ryanodine receptor in sixth-instar larvae of Spodoptera litura muscle membrane assessed as induction of Ca2+ pump at 2 uM after 30 min relative to control

Row | Structure (SMILES) | LC50 (Spodoptera litura) | also measured
1 | CSCC(C)(C)NC(=O)c1c(I)cccc1C(=O)Nc1ccc(C(F)(C(F)(F)F)C(F)(F)F)cc1C | 0.03 µg/mL (≈ 0.0461 µM) | 
2 | CSCC(C)(C)NC(=O)c1c(C(=O)Nc2ccc(C(F)(C(F)(F)F)C(F)(F)F)cc2C)cc(Cl)c(Cl)c1I | > 10 µg/mL | 
3 | Cc1cc(Cl)ccc1NC(=O)c1cccc(Br)c1C(=O)NC(C)C | 10 µg/mL (≈ 24.4 µM) | 
4 | Cc1cc(C(F)(C(F)(F)F)C(F)(F)F)ccc1NC(=O)c1cccc(I)c1C(=O)NC(C)C | 0.1 µg/mL (≈ 0.169 µM) | 
5 | CC(C)[C@@]1(O)[C@@H](OC(=O)c2cc[nH]c2)[C@@]2(O)[C@]3(C)C[C@@]4(O)O[C@@]5([C@H](O)[C@@H](C)CC[C@]35O)[C@@]2(O)[C@@]41C |  | Activity [1]: Active
6 | Cc1cc(OC(F)(F)F)ccc1NC(=O)c1cccc(I)c1C(=O)NC(C)C | 1 µg/mL (≈ 1.98 µM) | 
7 | Cc1cc(OC(F)F)ccc1NC(=O)c1cccc(I)c1C(=O)NC(C)C | 1 µg/mL (≈ 2.05 µM) | 
8 | Cc1cc(Cl)ccc1NC(=O)c1ccccc1C(=O)NC(C)C | 10 µg/mL (≈ 30.2 µM) | 
9 | C/C=C(/C)C(=O)O[C@H]1C(C)=C2[C@H]([C@@H]1OC(=O)CCCCCCC)[C@@](C)(OC(C)=O)C[C@H](OC(=O)CCC)[C@@]1(O)[C@H]2OC(=O)[C@@]1(C)O |  | Activity [2]: 31%; Activity [3]: 67.8%; Activity [4]: 31.7%
10 | Cc1cc(C(F)(C(F)(F)F)C(F)(F)F)ccc1NC(=O)c1cccc(I)c1C(=O)NC(C)(C)CS(C)(=O)=O [FLUBENDIAMIDE] | 0.03 µg/mL (≈ 0.044 µM) | Activity [5]: inactive
11 | Cc1cc(C(F)(F)C(F)(F)F)ccc1NC(=O)c1cccc(I)c1C(=O)NC(C)C | 0.3 µg/mL (≈ 0.555 µM) | 
12 | CNc1ccc2oc(C[C@H]3O[C@@]4(CC[C@H]3C)O[C@H]([C@H](C)C(=O)c3ccc[nH]3)[C@H](C)C[C@H]4C)nc2c1C(=O)O |  | Activity [6]: 158%; Activity [7]: 358%
